According to the supplement of paper PMC10307832:

How the values were obtained:
Assay in all cases: relative viability (nuclei count vs DMSO), 5 days (fraction); higher = more cells survive
[1] = compound: CN(C/C=C/C1=CC=C(C=C1)Cl)CC2=CC=CC=C2N(CCO)S(=O)(=O)C3=CC=C(C=C3)OC [KN-93] + CC(=O)c1c(C)c2cnc(Nc3ccc(N4CCNCC4)cn3)nc2n(C2CCCC2)c1=O [Palbociclib] (partner 0.5 µM)
In short: (§1)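 Relative viability equals treated-well nuclei counts divided by vehicle-well nuclei counts. Counts came from 4× images of lung cancer cell lines grown in 1536-well plates for 5 days after pin-tool dosing on the day after seeding. Dosing used one drug alone or a fixed anchor-drug dose plus five library-drug doses (not always all listed) in √10 steps, and values are medians of duplicate plates.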

[2] = compound: CN(C/C=C/C1=CC=C(C=C1)Cl)CC2=CC=CC=C2N(CCO)S(=O)(=O)C3=CC=C(C=C3)OC [KN-93] + CC(C)C[C@H](NC(=O)[C@H](Cc1ccccc1)NC(=O)c1cnccn1)B(O)O [Bortezomib] (partner 0.002 µM)
In short: as §1

[3] = compound: CN(C/C=C/C1=CC=C(C=C1)Cl)CC2=CC=CC=C2N(CCO)S(=O)(=O)C3=CC=C(C=C3)OC [KN-93] + CS(=O)(=O)CCNCc1ccc(-c2ccc3ncnc(Nc4ccc(OCc5cccc(F)c5)c(Cl)c4)c3c2)o1 [Lapatinib] (partner 2 µM)
In short: as §1

[4] = compound: CN(C/C=C/C1=CC=C(C=C1)Cl)CC2=CC=CC=C2N(CCO)S(=O)(=O)C3=CC=C(C=C3)OC [KN-93] + CS(=O)(=O)N1CCN(Cc2cc3nc(-c4cccc5[nH]ncc45)nc(N4CCOCC4)c3s2)CC1 [Pictilisib] (partner 1 µM)
In short: as §1

[5] = compound: CN(C/C=C/C1=CC=C(C=C1)Cl)CC2=CC=CC=C2N(CCO)S(=O)(=O)C3=CC=C(C=C3)OC [KN-93] + Nc1nc2[nH]cc(CCc3ccc(C(=O)N[C@@H](CCC(=O)O)C(=O)O)cc3)c2c(=O)[nH]1 [Pemetrexed] (partner 0.2 µM)
In short: as §1

Cell Line	relative viability ([1]; first compound 0.08 µM)	relative viability ([1]; first compound 0.253 µM)	relative viability ([1]; first compound 2.53 µM)	relative viability ([1]; first compound 8 µM)	relative viability ([2]; first compound 0.08 µM)	relative viability ([2]; first compound 0.253 µM)	relative viability ([2]; first compound 2.53 µM)	relative viability ([2]; first compound 8 µM)	relative viability ([3]; first compound 0.08 µM)	relative viability ([3]; first compound 0.253 µM)	relative viability ([3]; first compound 2.53 µM)	relative viability ([3]; first compound 8 µM)	relative viability ([4]; first compound 0.08 µM)	relative viability ([4]; first compound 0.253 µM)	relative viability ([4]; first compound 2.53 µM)	relative viability ([4]; first compound 8 µM)	relative viability ([5]; first compound 0.08 µM)	relative viability ([5]; first compound 0.253 µM)	relative viability ([5]; first compound 2.53 µM)	relative viability ([5]; first compound 8 µM)
RERF-LC-KJ	1.03	1	1.16	0.8	1.07	1.2	1.09	0.928	0.803	0.81	1.01	0.776	0.582	0.486	0.598	0.332	0.504	0.485	0.46	0.461
SK-LU-1	0.439	0.451	0.41	0.314	1.58	1.02	1.59	0.591	0.644	1.15	0.972	0.56	0.5	0.591	0.536	0.357	0.967	1.19	1.16	0.688
SW 1573	0.395	0.47	0.429	0.15	1.04	1.23	0.973	0.763	1.31	1.11	1.14	0.919		0.446	0.493	0.199	1.07	0.916	0.981	0.307
UMC-11	0.35	0.306	0.35	0.322		0.919	0.799	0.197	0.839	1.12	1.32	0.626		0.976	0.962	0.278	0.697	1.01	1.05	0.467
